# Reference: PMC4383003, “Transfer hydrogenation catalysis in cells as a new approach to anticancer drug design” (Nature Communications, 2015)
# Where “and” joins values, the source holds several entries; their conditions need not be identical. Equal values may be shown once.
# Experiments:
# [1] = tested on: A2780 ovarian cancer cells; test: Cell viability on co-administration of Ru complexes (1/3 x IC50) with formate or acetate; assay type: cell-based, human; settings: for Cell viability: A2780, complex 1/3 x IC50, 24 h
# Method: Cell viability assays were carried out with complexes 1–8 in A2780 ovarian cancer cells. These experiments were carried out as described above with the following modifications: a fixed concentration of each Ru complex equal to 1/3 × IC50 was used in co-administration with three different concentrations of sodium formate or sodium acetate (0.5, 1.0 and 2.0 mM). To prepare the stock solution of the drug, the complex was dissolved in 5% dimethylsulfoxide and diluted in a 1:1 mixture of 0.9% saline:cell culture medium. This stock was further diluted using RPMI-1640 until working concentrations were achieved. Separately, stock solutions of sodium formate or sodium acetate were prepared in saline. The complex and formate were added to each well independently, but within 5 min of each other.
# Supplementary Table 7: Percent cell viability of A2780 ovarian cancer cells exposed to equipotent concentrations of ruthenium complexes 1-3 and 5-8 (1/3 x […]
# The experiments included 48 h of pre-incubation and 72 h of drug recovery, both in drug-free medium at 310 K in a 5% CO2 humidified atmosphere. All the experiments were performed as duplicates of triplicates in independent experiments and the error bars were calculated as the standard deviation from the mean.
# Supplementary Table 11: Cell viability (%) of A2780 ovarian cancer cells exposed […]
# administered with different concentrations of sodium acetate (0, 0.5, 1 and 2 mM).
# The experiments involved 48 h of pre-incubation and 72 h of drug recovery, both in […]
# Cell viability percentages (%)
# Complex Acetate concentration (mM)
# [2] = tested on: 9-ethylguanine; test: Binding to model nucleobase 9-ethylguanine by 1H NMR; settings: D2O, pH* 7.2 ± 0.1, 310 K
# Method: Supplementary Table 4: Binding constants for formation of 9-EtG adducts of complexes 1-4 determined by 1H NMR. The experiments were performed in D2O, pH* 7.2 ± 0.1 and 310 K. Equilibrium was reached by the time the first 1H NMR spectrum was recorded (< 10 min). […]
# DNA is believed to be the main target for [(bip)Ru(en)Cl]+ (8). Due to the structural similarity of the complexes 1-5 with complex 8, their binding to DNA was […]
# Interaction with nucleobases
# Initially, model nucleobases, 9-ethylguanine and 9-methyladenine were reacted with complexes 1-4 in D2O, 310 K and pH* 7.2 ± 0.1. The binding of the complexes to 9-EtG or 9-MeA was monitored by 1H-NMR spectroscopy. Peaks for the 9-EtG adducts were observed by the time the first spectrum was recorded (< 5 min after mixing), […]
# equilibrium was reached rapidly. The binding constants for formation of 9-EtG adducts determined by NMR were between 60 and 106 mM-1 (Supplementary Table 4). These values are in the same range as that from the ethylenediamine complex [(bip)Ru(en)Cl]+ (K9-EtG= 60.3 mM-1),2 which also binds strongly to DNA.3, 4 The high resolution mass spectrum confirmed the formation of [(η6-arene)Ru(XEn)(9-EtG)]+ (Supplementary Table 5). The interaction of complexes 1-4 with 9-MeA was also investigated, but no reaction was detected by 1H-NMR.
# It is well established that N7 of guanine is the preferred nucleotide binding site for many transition metals ions. 2-8 Furthermore, strong and selective binding to N7 of 9-EtG, has been observed for [(η6-arene)Ru(en)Cl]+.3, 4 A pH* titration of […]
# [3] = pKa* of aqua adducts of the complexes; assay type: physicochemical; settings: pKa value determined in deuterated solvent
# Text: Table 1 pKa* values for aqua adducts of catalysts 1–4 (and 8 for comparison) and turnover frequencies for transfer hydrogenation of NAD^+ using formate. | column: pKa*
# [4] = tested on: A2780 ovarian cancer cells; test: Ruthenium accumulation in cancer cells (ICP-MS); assay type: cell-based, human; settings: for Cell Ru: A2780, 1/3 x IC50, 24 h drug exposure, no recovery time; for Cell accum.: A2780, 24 h, 1/3 x IC50
# Method: Briefly, 1.5 × 10^6 cells per well were seeded on a six-well plate. […] After this time, cells were washed, treated with trypsin-EDTA, counted and cell pellets were collected. Each pellet was digested overnight in concentrated nitric acid (73%) at 353 K; the resulting solutions were diluted using double-distilled water to give a final concentration of 5% HNO3 and the amount of Ru taken up by the cells was determined by ICP–MS. […]
# Supplementary Table 3: Antiproliferative activity of complexes 1-8 in A2780 ovarian cancer cells and their cellular accumulation (expressed as ng Ru per million cells).
# The latter experiments were carried out using equipotent concentrations of the […]
# experiments were performed as duplicates of triplicates in independent experiments and the error bars were calculated as the standard deviation from the mean. […]
# [5] = tested on: A2780 human ovarian cancer cells; test: In vitro growth inhibition assay (SRB), A2780; assay type: cell-based; settings: A2780, Supplementary Table 3
# Method: A2780 human ovarian carcinoma and MRC5 human fetal lung fibroblasts were obtained from the European Collection of Cell Cultures. Both cell lines were grown in Roswell Park Memorial Institute medium (RPMI-1640) supplemented with 10% of fetal calf serum, 1% of 2 mM glutamine and 1% penicillin/streptomycin. All cells were grown as adherent monolayers at 310 K in a 5% CO2-humidified atmosphere and passaged at ca. 70–80% confluency.
# The antiproliferative activity of complexes 1–8 was determined in A2780 ovarian cancer cells and MRC5 fibroblasts. Briefly, 96-well plates were used to seed 5,000 cells per well. The plates were left to pre-incubate with drug-free medium at 310 K for 48 h before adding different concentrations of the compounds to be tested. A drug exposure period of 24 h was allowed. After this, supernatants were removed by suction and each well was washed with PBS. A further 72 h were allowed for the cells to recover in drug-free medium at 310 K. The sulforhodamine B (SRB) assay was used to determine cell viability. IC50 values, as the concentration that causes 50% cell death, were determined as duplicates of triplicates in two independent sets of experiments and their s.d. were calculated.
# [6] = Transfer hydrogenation of NAD+ to 1,4-NADH with formate, followed by 1H NMR; settings: NAD+ 2 mol equiv, formate 25 mol equiv, 310 K, pH* 7.2; for TOF D2O/MeOH-d4: 23% MeOH-d4/77% D2O
# Method: Complexes 1–7 were dissolved in MeOH-d4/D2O (5:1 v/v, 1.4 mM, 4 ml). Solutions of sodium formate (35 mM, 4 ml) and NAD^+ in D2O (2.8 mM, 2 ml) were also prepared and incubated at 310 K. In a typical experiment, 200-μl aliquots of each solution were added to a 5-mm NMR tube and the pH* adjusted to 7.2±0.1 (total volume 0.635 ml, final concentrations: Ru complex 0.44 mM; NAD^+ 0.88 mM; formate 11.02 mM; molar ratio 1:2:25). ^1H NMR spectra were recorded at 310 K every 162 s until the completion of the reaction.
# Molar ratios of NAD^+ and NADH were determined by integrating the peaks at 9.33 and 6.96 p.p.m. (NAD^+ and 1,4-NADH, respectively). The turnover number for the reaction was calculated as follows: […]
# where In is the integral of the signal at n p.p.m. and [NAD^+]0 is the concentration of NAD^+ at the start of the reaction.
# [7] = pH* titration of the 9-EtG adduct (1H NMR); assay type: physicochemical; settings: protonation/deprotonation of N1 of coordinated 9-EtG, H8 chemical shift versus pH*
# Text: [(p-cym)Ru(TsEn)(9-EtG)]+ was used to confirm that the complex binds to N7. A plot
# of the chemical shift of H8 from bound 9-EtG (Supplementary Figure 3), versus pH*
# from coordinated 9-EtG and therefore we conclude that the binding of complex 2 to […]
structure (smiles),measurement,setting,value
"CS(=O)(=O)[N-]CCN.Cc1ccc(C(C)C)cc1.[Cl-].[Ru+2] [Complex 1, [(p-cym)Ru(MsEn)Cl]]",Cell viability,[1]; formate 0.5 mM,61± 1%
same,Cell viability,[1]; formate 1 mM,40.0 ± 0.4%
same,Cell viability,[1]; formate 2 mM,1.5 ± 0.1% and ~1%
same,decrease in cell survival,"[1]; A2780, formate increased from 0 to 2 mM",ca. 50 fold
same,Binding constant for formation of 9-EtG adducts,[2],105.4 ± 2.3 mM⁻¹
same,pKa*,[3],9.86±0.01
same,Cell Ru,[4],0.16 ± 0.02 ng x 106 cells
same,Cell accum.,[4],0.16 ng Ru/10^6 cells
same,IC50,[5],11.9 ± 0.8 µM
same,TOF D2O/MeOH-d4,[6],1.25 ± 0.03 h⁻¹
same,TOF D2O,[6],1.11 ± 0.02 h⁻¹
"Cc1ccc(C(C)C)cc1.NCC[N-]S(=O)(=O)c1ccc(C(F)(F)F)cc1.[Cl-].[Ru+2] [Complex 3, [(p-cym)Ru(TfEn)Cl]]",Cell viability,[1]; formate 0 mM,71 ± 2%
same,Cell viability,[1]; formate 0.5 mM,60± 2%
same,Cell viability,[1]; formate 1 mM,39.4 ± 2.0%
same,Cell viability,[1]; formate 2 mM,19 ± 2%
same,Binding constant for formation of 9-EtG adducts,[2],60.5 ± 6.0 mM⁻¹
same,pKa*,[3],9.71±0.01
same,Cell Ru,[4],0.31 ± 0.04 ng x 106 cells
same,Cell accum.,[4],0.31 ng Ru/10^6 cells
same,IC50,[5],14.2 ± 0.8 µM
same,TOF D2O/MeOH-d4,[6],5.7 ± 0.3 h⁻¹
same,TOF D2O,[6],3.06 ± 0.05 h⁻¹
CCn1cnc2c(=O)[nH]c(N)nc21.Cc1ccc(C(C)C)cc1.Cc1ccc(S(=O)(=O)[N-]CCN)cc1.[Ru+2] [[(p-cym)Ru(TsEn)(9-EtG)]+],pKa*,[7],8.77
